Measured values reported in US8101386B2, “Escherichia coli strains which over-produce L-threonine and processes for the production of L-threonine by fermentation” (Archer Daniels Midland Company, priority 2000, dated 2012).

Assays:
E. coli strain 6-8 = assay: CPCA resistance test: growth in minimal medium E with CPCA; type: cell-based; set-up: unit not given here; conditions: 24 hr, 36° C.
Description: (§1) To test for CPCA resistance, each strain was cultivated in 20 ml of the seed medium SM (32.5 g/L glucose; 1 g/L MgSO4 7H2O; 24.36 g/L K2HPO4; 9.52 g/L KH2PO4; 5 (NH4)2SO4; 15 g/L yeast extract; pH 7.2) at 36° C. for 17 hr with shaking. The cells were harvested and washed with minimal medium E. The cell suspension was then inoculated into a sterilized tube containing 3 ml of minimal medium E and 0, 0.1, 0.5, or 1 mM CPCA. After 24 hr cultivation as 36° C. with shaking, growth was determined by measuring the optical density at 660 nm. The results are shown below in Table 1 relative to growth in the absence of CPCA.

E. coli strain G909 = assay: as above; type: cell-based; conditions: 24 hr, 36° C.
Description: as §1

E. coli = conditions: G. Nass et al. 1969; cited from earlier work
threonyl tRNA-synthetase = threonyl tRNA-synthetase (Escherichia coli, UniProt P0A8M3); conditions: G. Nass et al. 1969; cited from earlier work
threonyl tRNA-synthetase, sequence (P0A8M3 whole entry): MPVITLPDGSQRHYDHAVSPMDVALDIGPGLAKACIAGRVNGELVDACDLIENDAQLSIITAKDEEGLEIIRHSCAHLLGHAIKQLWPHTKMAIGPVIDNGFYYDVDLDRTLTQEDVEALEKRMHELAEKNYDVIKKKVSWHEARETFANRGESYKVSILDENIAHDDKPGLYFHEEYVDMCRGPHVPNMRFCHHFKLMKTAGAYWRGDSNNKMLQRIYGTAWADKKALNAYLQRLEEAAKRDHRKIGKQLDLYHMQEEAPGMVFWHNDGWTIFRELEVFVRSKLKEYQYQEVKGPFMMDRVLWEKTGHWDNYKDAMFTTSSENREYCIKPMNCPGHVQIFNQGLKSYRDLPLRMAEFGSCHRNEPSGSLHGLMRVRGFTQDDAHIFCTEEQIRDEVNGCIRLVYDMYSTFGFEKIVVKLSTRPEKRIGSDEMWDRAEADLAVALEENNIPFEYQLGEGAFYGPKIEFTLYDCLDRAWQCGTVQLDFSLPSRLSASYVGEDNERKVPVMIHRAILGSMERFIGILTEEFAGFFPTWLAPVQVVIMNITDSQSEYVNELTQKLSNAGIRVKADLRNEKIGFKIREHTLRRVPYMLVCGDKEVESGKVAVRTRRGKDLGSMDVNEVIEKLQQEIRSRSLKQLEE

| SMILES | growth (optical density at 660 nm) relative to growth in the absence of CPCA (E. coli strain 6-8; 0.1 mM CPCA) | growth (optical density at 660 nm) relative to growth in the absence of CPCA (E. coli strain 6-8; 0.5 mM CPCA) | growth (optical density at 660 nm) relative to growth in the absence of CPCA (E. coli strain 6-8; 1 mM CPCA) | growth (optical density at 660 nm) relative to growth in the absence of CPCA (E. coli strain G909; 0.1 mM CPCA) | growth (optical density at 660 nm) relative to growth in the absence of CPCA (E. coli strain G909; 0.5 mM CPCA) | growth (optical density at 660 nm) relative to growth in the absence of CPCA (E. coli strain G909; 1 mM CPCA) | effect on growth of E. coli (E. coli) | effect on enzymatic activity of threonyl tRNA-synthetase (threonyl tRNA-synthetase) |
| --- | --- | --- | --- | --- | --- | --- | --- | --- |
| O=C(O)C1CCCC1 [CPCA, cyclopentanecarboxylic acid] | 134.5 | 141.0 | 184.5 | 24.2 | 2.9 | 0.9 |  |  |
| C[C@@H]1C[C@H](C)C[C@H](C)[C@@H](O)CC(=O)O[C@H]([C@@H]2CCC[C@H]2C(=O)O)C/C=C/C=C(/C#N)[C@H](O)[C@@H](C)C1 [borrelidin] |  |  |  |  |  |  | inhibit the growth | reduce the enzymatic activity |
